The values below come from PubChem BioAssay (NCI).

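A five-concentration, 48-hour dose response in 96-well plates underlies each endpoint, interpolated linearly between surrounding concentrations. GI50 is the concentration that inhibits growth by half. TGI marks complete inhibition of growth.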

Among the test systems are COLO 205 colon; DU-145 prostate; M14 melanoma; IGROV1 ovarian; SN12C renal; A498 renal; OVCAR-3 ovarian; HT29 colon; OVCAR-5 ovarian; ACHN renal.
Experiment in all cases: NCI-60 cell line screen, 48 h

For `C=C1CCC2C3(C)COC(c4ccccc4Cl)OC3CCC2(C)C1/C=C/C1=CCOC1=O` (centres undefined), the GI50 with COLO 205 colon was 17.9 µM; in the assay with DU-145 prostate, > 100 µM; in the assay with M14 melanoma, 89.6 µM; in the assay on IGROV1 ovarian, > 100 µM; in the assay with SN12C renal, > 100 µM; in the assay on A498 renal it was > 100 µM. Also, the GI50 in the assay with OVCAR-3 ovarian was 26.2 µM; in the assay on HT29 colon, 5.43 µM; in the assay with OVCAR-5 ovarian, > 100 µM; in the assay on ACHN renal it was 38.7 µM. Also, the TGI in the assay on COLO 205 colon, in the assay on DU-145 prostate, with M14 melanoma, in the assay on IGROV1 ovarian, in the assay on SN12C renal and in the assay on A498 renal was > 100 µM throughout. Further, the TGI in the assay with OVCAR-3 ovarian, with HT29 colon, with OVCAR-5 ovarian and in the assay on ACHN renal was > 100 µM each time.

Take `CC1=C(C)SC(=C2Sc3c(n(C)c(=O)n(C)c3=O)S2)S1`: the TGI in the assay on COLO 205 colon is > 100 µM; in the assay with DU-145 prostate it was > 100 µM; with M14 melanoma, > 100 µM; in the assay with IGROV1 ovarian, > 100 µM; in the assay on SN12C renal it was > 100 µM; in the assay with A498 renal, 79.4 µM. In addition, the TGI in the assay on OVCAR-3 ovarian, in the assay on HT29 colon, with OVCAR-5 ovarian and in the assay on ACHN renal was > 100 µM in each case.

Regarding `COc1cc(C(=O)c2cocc2C(=O)c2ccc3c(c2)OCO3)cc(OC)c1OC`, the TGI in the assay on COLO 205 colon came out at 26.5 µM; with DU-145 prostate it was 21.2 µM; with M14 melanoma, 33.5 µM; in the assay on IGROV1 ovarian it was 48.5 µM; with SN12C renal it was 56.1 µM; in the assay on A498 renal, 26.2 µM. Also, the TGI was 8.15 µM in the assay with OVCAR-3 ovarian, 5.98 µM in the assay with HT29 colon, > 66.3 µM in the assay on OVCAR-5 ovarian and > 48.4 µM in the assay on ACHN renal.

Take `NC(=O)NN=C1Cc2ccccc2C1`: the TGI in the assay with COLO 205 colon, in the assay with DU-145 prostate, in the assay on M14 melanoma, in the assay with IGROV1 ovarian, in the assay with SN12C renal and in the assay on A498 renal was > 100 µM in each case. Moreover, the TGI in the assay with OVCAR-3 ovarian, in the assay on HT29 colon, in the assay with OVCAR-5 ovarian and with ACHN renal was > 100 µM in each case.

Take `COC(=O)N[C@H]1CCc2c(Cl)c(OC)c(OC)c(OC)c2-c2ccc(SC)c(=O)cc21`: the GI50 with COLO 205 colon, in the assay on DU-145 prostate, in the assay on M14 melanoma, in the assay with IGROV1 ovarian, in the assay with SN12C renal and with A498 renal was < 0.01 µM throughout. For the same compound, the GI50 in the assay on OVCAR-3 ovarian, in the assay with HT29 colon, with OVCAR-5 ovarian and in the assay with ACHN renal was < 0.01 µM each time. For the same compound, the TGI was 0.0303 µM with COLO 205 colon; > 100 µM in the assay on DU-145 prostate; > 52.5 µM in the assay on IGROV1 ovarian; > 43.9 µM in the assay on SN12C renal; < 0.01 µM in the assay on A498 renal; < 0.01 µM in the assay with OVCAR-3 ovarian. In addition, the TGI was > 94.8 µM with HT29 colon, > 94.8 µM in the assay with OVCAR-5 ovarian and 38.1 µM with ACHN renal.

Regarding `CC1(C)CCC[C@]2(C)c3ccccc3C(=O)CC12` (some centres undefined), the GI50 with COLO 205 colon is 27.4 µM; in the assay on DU-145 prostate, 65.7 µM; in the assay with M14 melanoma it was 38.6 µM; in the assay on IGROV1 ovarian, 45.3 µM; with SN12C renal, 44.9 µM; in the assay on A498 renal, 26 µM. The GI50 in the assay on OVCAR-3 ovarian was 41.2 µM; with HT29 colon, 43 µM; in the assay with OVCAR-5 ovarian, > 100 µM; in the assay with ACHN renal it was 67.4 µM. Also, the TGI in the assay with COLO 205 colon was > 100 µM; in the assay on DU-145 prostate it was > 100 µM; with M14 melanoma, > 100 µM; with IGROV1 ovarian it was > 100 µM; with SN12C renal it was > 100 µM; in the assay with A498 renal, 71.4 µM. For the same compound, the TGI with OVCAR-3 ovarian, with HT29 colon, in the assay on OVCAR-5 ovarian and in the assay with ACHN renal was > 100 µM in each case.

`COCCNc1cncc(C(N)=O)c1`: the TGI in the assay on COLO 205 colon, in the assay on DU-145 prostate, in the assay on M14 melanoma, in the assay on IGROV1 ovarian, with SN12C renal and in the assay on A498 renal was > 100 µM in each case. The TGI in the assay on OVCAR-3 ovarian, in the assay with HT29 colon, with OVCAR-5 ovarian and with ACHN renal was > 100 µM each time.

In the case of `O=C1N=C(Nc2nc(-c3csc(NC4=NC(=O)/C(=C\c5ccccc5)S4)n3)cs2)S/C1=C/c1ccccc1`, the GI50 in the assay on COLO 205 colon was 30.3 µM; with DU-145 prostate it was 16.8 µM; in the assay on M14 melanoma, 4.63 µM; in the assay on IGROV1 ovarian, 36.6 µM; with SN12C renal it was 5.64 µM; in the assay on A498 renal, > 50 µM. The GI50 with OVCAR-3 ovarian is 20.8 µM; in the assay with HT29 colon, 25.7 µM; in the assay with OVCAR-5 ovarian, 34 µM; in the assay with ACHN renal, 12.2 µM. The TGI with COLO 205 colon is > 50 µM; in the assay on DU-145 prostate, > 50 µM; in the assay with M14 melanoma, 32.3 µM; with IGROV1 ovarian it was > 50 µM; in the assay with SN12C renal, 20.6 µM; with A498 renal, > 50 µM. In addition, the TGI is > 50 µM in the assay with OVCAR-3 ovarian, > 50 µM in the assay on HT29 colon, > 50 µM in the assay with OVCAR-5 ovarian and 46.3 µM in the assay with ACHN renal.

Consider `CS(=O)(=O)N(c1cc(-c2ccc3ncnc(Nc4ccc(F)c(Cl)c4)c3c2)cnc1Cl)S(C)(=O)=O`, for which the GI50 in the assay on COLO 205 colon is 1.32 µM; in the assay on DU-145 prostate, 1.18 µM; with M14 melanoma it was 1.17 µM; in the assay on IGROV1 ovarian, 0.196 µM; in the assay with SN12C renal, 0.964 µM; in the assay on A498 renal it was 0.342 µM. Besides, the GI50 in the assay with OVCAR-3 ovarian is 0.728 µM; in the assay with HT29 colon it was 1.07 µM; with OVCAR-5 ovarian, 0.795 µM; in the assay with ACHN renal, 1.11 µM. Moreover, the TGI in the assay on COLO 205 colon is 5.93 µM; in the assay with DU-145 prostate it was 24.9 µM; with M14 melanoma it was 11.9 µM; in the assay on IGROV1 ovarian, 0.786 µM; with SN12C renal, > 32.6 µM; with A498 renal it was 1.56 µM. For the same compound, the TGI is 4.24 µM in the assay with OVCAR-3 ovarian, 13.9 µM with HT29 colon, 10.2 µM in the assay on OVCAR-5 ovarian and 12.4 µM in the assay on ACHN renal.
